Reference: the CheMixHub ionic liquid set

Experiment: xn = mol fraction of the nth substance listed

CCCCCCCCCCCCCCn1cc[n+](C)c1.[Br-] + O
electrical conductivity [S/m], 101 kPa, frequency 0.001 MHz
Conditions | 298.15 K | 308.15 K | 318.15 K
x1 = 4.74e-06 | 0.00249 | 0.00401 | 0.00409
x1 = 9.35e-06 | 0.00459 | 0.00671 | 0.00708
x1 = 1.386e-05 | 0.0065 | 0.0093 | 0.0101
x1 = 1.825e-05 | 0.00834 | 0.011 | 0.0127
x1 = 2.252e-05 | 0.0101 | 0.0135 | 0.0154
x1 = 2.669e-05 | 0.0119 | 0.0154 | 0.0182
x1 = 3.076e-05 | 0.0136 | 0.0173 | 0.0206
x1 = 3.474e-05 | 0.0152 | 0.0199 | 0.0232
x1 = 3.862e-05 | 0.0167 | 0.0218 | 0.0253
x1 = 4.24e-05 | 0.0183 | 0.0238 | 0.028
x1 = 4.613e-05 | 0.0192 | 0.0252 | 0.0303
x1 = 4.973e-05 | 0.0199 | 0.0265 | 0.0322
x1 = 5.334e-05 | 0.0204 | 0.0273 | 0.0335
x1 = 5.676e-05 | 0.0209 | 0.0282 | 0.0345
x1 = 6e-05 | 0.0213 | 0.0288 | 0.0356
x1 = 6.343e-05 | 0.0217 | 0.0294 | 0.0365
x1 = 6.667e-05 | 0.0221 | 0.03 | 0.0372
x1 = 6.973e-05 | 0.0225 | 0.0305 | 0.0377
x1 = 7.28e-05 | 0.0229 | 0.0311 | 0.0383
x1 = 7.586e-05 | 0.0233 | 0.0316 | 0.0389
x1 = 7.892e-05 | 0.0236 | 0.0321 | 0.0396
x1 = 8.18e-05 | 0.024 | 0.0326 | 0.0408
x1 = 8.451e-05 | 0.0243 | 0.0329 | 0.0414
x1 = 8.739e-05 | 0.0246 | 0.0333 | 0.0418

CCCCCCCC[N+](C)(CCCCCCCC)CCCCCCCC.O=S(=O)([N-]S(=O)(=O)C(F)(F)F)C(F)(F)F + O
100 kPa, x1 = 0.8468
Conditions | viscosity [mPa·s]
313.15 K | 239
343.15 K | 65

CCCCCCCC[n+]1ccn(C)c1.F[P-](F)(F)(F)(F)F + O
101 kPa, x2 = 0.212
Conditions | electrical conductivity [S/m] | viscosity [mPa·s]
293.15 K | – | 500
295.15 K | 0.12 | –

CCCCCCCC[n+]1ccn(C)c1.O=C([O-])[C@@H]1CCCN1 + O
298.15 K, 100 kPa, frequency 0.001 MHz
Conditions | electrical conductivity [S/m]
x1 = 0.001745 | 0.149
x1 = 0.002409 | 0.209
x1 = 0.002947 | 0.264
x1 = 0.003555 | 0.308
x1 = 0.004199 | 0.369
x1 = 0.004895 | 0.425
x1 = 0.005502 | 0.483
x1 = 0.006143 | 0.531
x1 = 0.006819 | 0.572
x1 = 0.0076 | 0.608
x1 = 0.008416 | 0.648
x1 = 0.009336 | 0.688
x1 = 0.01018 | 0.725
x1 = 0.01137 | 0.783
x1 = 0.01233 | 0.819
x1 = 0.01355 | 0.879

CCCCCCCCn1cc[n+](C)c1.F[B-](F)(F)F + O
100 kPa
Conditions | viscosity [mPa·s]
298.15 K, x2 = 0.9487 | 5.25
308 K, x1 = 0.5482 | 34.91

CCCCCCCCn1cc[n+](C)c1.[Br-] + O
electrical conductivity [S/m]
Conditions | 298.15 K | 308.15 K
100 kPa, frequency 0.001 MHz, x1 = 0.0006843 | 0.249 | –
100 kPa, frequency 0.001 MHz, x1 = 0.0009721 | 0.348 | –
100 kPa, frequency 0.001 MHz, x1 = 0.001278 | 0.462 | –
100 kPa, frequency 0.001 MHz, x1 = 0.001601 | 0.576 | –
100 kPa, frequency 0.001 MHz, x1 = 0.001889 | 0.683 | –
100 kPa, frequency 0.001 MHz, x1 = 0.002176 | 0.778 | –
100 kPa, frequency 0.001 MHz, x1 = 0.002445 | 0.88 | –
100 kPa, frequency 0.001 MHz, x1 = 0.002714 | 0.965 | –
100 kPa, frequency 0.001 MHz, x1 = 0.003072 | 1.06 | –
100 kPa, frequency 0.001 MHz, x1 = 0.003341 | 1.1 | –
100 kPa, frequency 0.001 MHz, x1 = 0.003681 | 1.15 | –
100 kPa, frequency 0.001 MHz, x1 = 0.004092 | 1.22 | –
100 kPa, frequency 0.001 MHz, x1 = 0.004592 | 1.28 | –
101 kPa, frequency 1 MHz, x1 = 0.0001962 | 0.1011 | 0.122

Conditions | electrical conductivity [S/m] | viscosity [mPa·s]
298.15 K, 100 kPa, x1 = 6.847e-05 | – | 0.892
298.15 K, 100 kPa, x1 = 0.0003279 | – | 0.899
298.15 K, 101 kPa, x1 = 1.982e-05 | – | 0.891
298.15 K, 101 kPa, x1 = 3.243e-05 | – | 0.892
298.15 K, 101 kPa, x1 = 0.0001962 | – | 0.912
298.15 K, 101 kPa, x1 = 0.001831 | – | 0.965
298.15 K, 101 kPa, x1 = 0.003519 | 1.17 | –
298.15 K, 101 kPa, x1 = 0.003598 | – | 1.025
298.15 K, 101 kPa, x1 = 0.00377 | 1.23 | –
298.15 K, 101 kPa, x1 = 0.003967 | 1.26 | –
298.15 K, 101 kPa, x1 = 0.004163 | 1.3 | –
298.15 K, 101 kPa, x1 = 0.004378 | 1.34 | –
298.15 K, 101 kPa, x1 = 0.004538 | 1.36 | –
298.15 K, 101 kPa, x1 = 0.004717 | 1.39 | –
298.15 K, 101 kPa, x1 = 0.004895 | 1.41 | –
298.15 K, 101 kPa, x1 = 0.005109 | 1.45 | –
298.15 K, 101 kPa, x1 = 0.005288 | 1.48 | –
298.15 K, 101 kPa, x1 = 0.005443 | – | 1.103
298.15 K, 101 kPa, x1 = 0.005484 | 1.51 | –
298.15 K, 101 kPa, x1 = 0.005698 | 1.54 | –
298.15 K, 101 kPa, x1 = 0.005894 | 1.56 | –
298.15 K, 101 kPa, x1 = 0.007132 | – | 1.172
303.15 K, 100 kPa, x1 = 0.0002 | – | 0.803
308.15 K, 100 kPa, x1 = 0.0003279 | – | 0.726
308.15 K, 101 kPa, x1 = 0.0001962 | – | 0.736
313.15 K, 100 kPa, x1 = 0.0002 | – | 0.657

CCCC[n+]1ccn(C)c1.COP(=O)([O-])OC + O
101 kPa
Conditions | viscosity [mPa·s]
298.15 K, x2 = 0.398 | 251
303.15 K, x2 = 0.201 | 291
303.15 K, x2 = 0.601 | 81.6
313.15 K, x2 = 0.799 | 15.81
318.15 K, x2 = 0.398 | 78.8
328.15 K, x2 = 0.398 | 49.68

CCCC[n+]1ccn(C)c1.O=S(=O)([O-])C(F)(F)F + O
Conditions | viscosity [mPa·s]
343.15 K, 101 kPa, x2 = 0.1939 | 10.55

CCOS(=O)(=O)[O-].CC[N+]1(C)CCOCC1 + O
101 kPa
Conditions | viscosity [mPa·s]
313.15 K, x2 = 0.193 | 750
333.15 K, x2 = 0.3681 | 81
333.15 K, x2 = 0.7786 | 6.7
343.15 K, x2 = 0.6835 | 9.5
